# Results reported in ChEMBL document CHEMBL4616697, “Discovery of Adamantane Carboxamides as Ebola Virus Cell Entry and Glycoprotein Inhibitors” (ACS Med Chem Lett, 2020).
# Legend:
# [1] = Kinetic aqueous solubility of compound in PBS at pH 6.4 to 7.5 measured after 2 hrs by spectrophotometry analysis; type: physicochemical; conditions: read-out: Kinetic_solubility
# [2] = Inhibition of glycoprotein in VSV pseudotyped Ebolavirus infected in African green monkey Vero cells assessed as reduction in virus entry incubated for 24 hrs by luciferase reporter gene assay; type: cell-based
# [3] = Metabolic stability in human liver microsomes assessed as parent compound remaining at 1 uM pretreated for 30 mins followed by NADPH addition and measured after 60 mins by LC-MS/MS analysis; type: ADME, Microsome; conditions: for remaining at 1 h, 1 µM: liver microsomes, read-out: Stability; for Stability: microsomes, 1 h, 1 µM
# [4] = Metabolic stability in dog liver microsomes assessed as parent compound remaining at 1 uM pretreated for 30 mins followed by NADPH addition and measured after 60 mins by LC-MS/MS analysis; type: ADME, Canis lupus familiaris, Microsome; conditions: read-out: Stability
# [5] = Metabolic stability in rat liver microsomes assessed as parent compound remaining at 1 uM pretreated for 30 mins followed by NADPH addition and measured after 60 mins by LC-MS/MS analysis; type: ADME, Microsome; conditions: read-out: Stability
# [6] = Cytotoxicity against African green monkey Vero E6 cells assessed as reduction in cell viability incubated for 10 days by neutral red dye based spectrophotometry analysis; design: species or system Vero C1008; conditions: chlorocebus sabaeus
# [7] = Metabolic stability in guinea pig liver microsomes assessed as parent compound remaining at 1 uM pretreated for 30 mins followed by NADPH addition and measured after 60 mins by LC-MS/MS analysis; type: ADME, Cavia porcellus, Microsome; conditions: read-out: Stability
# [8] = Selectivity index, ratio of CC50 for African green monkey Vero E6 cells assessed as reduction in cell viability incubated for 10 days by neutral red dye based spectrophotometry analysis to EC90 for wild type Ebolavirus infected in African green monkey Vero E6 cells assessed as reduction in viral replication by virus yield reduction assay; type: toxicity, Vero C1008; conditions: read-out: Selectivity Index
# [9] = Metabolic stability in Cynomolgus monkey liver microsomes assessed as parent compound remaining at 1 uM pretreated for 30 mins followed by NADPH addition and measured after 60 mins by LC-MS/MS analysis; type: ADME, Macaca fascicularis, Microsome; conditions: read-out: Stability
# [10] = Metabolic stability in mouse liver microsomes assessed as parent compound remaining at 1 uM pretreated for 30 mins followed by NADPH addition and measured after 60 mins by LC-MS/MS analysis; type: ADME, Microsome; conditions: read-out: Stability
# [11] = Aqueous solubility of compound in PBS at pH 7.4 measured after 2 hrs by spectrophotometry analysis; type: physicochemical
# [12] = tested on: Ebolavirus; assay: Antiviral activity against wild type Ebolavirus infected in African green monkey Vero E6 cells assessed as inhibition of viral entry compound treated with primary viral infected cells for 60 mins and after 3 days post-infection measured following 10 days of compound incubation with fresh cells infected with primary culture supernatants by virus yield reduction assay; type: functional; conditions: Orthoebolavirus, Vero C1008
# [13] = tested on: Ebolavirus; assay: Antiviral activity against wild type Ebolavirus infected in African green monkey Vero cells assessed as reduction in plaque forming units incubated for 10 days by crystal violet staining based assay; type: functional, organism-based; conditions: Orthoebolavirus, 240 h
# [14] = Selectivity index, ratio of CC50 for African green monkey Vero E6 cells assessed as reduction in cell viability incubated for 10 days by neutral red dye based spectrophotometry analysis to EC50 for wild type Ebolavirus infected in African green monkey Vero cells assessed as reduction in plaque forming units incubated for 10 days by crystal violet staining based assay; type: toxicity, Vero C1008; conditions: read-out: Ratio CC50/EC50
Compound,solubility kinetic at 2 h [1] [µM],"EC50 ([2]; Orthoebolavirus, Vero, 24 h) [nM]","remaining at 1 h, 1 µM [3] [%]",EC50 ([2]; vero) [nM],also measured
O=C(NC1CCNCC1)C12CC3CC(C1)CC(c1ccccc1)(C3)C2,> 100,72,,,
C[C@H]1C[C@H](NC(=O)C23CC4CC(C)(C2)CC(c2ccccc2)(C4)C3)CCN1 (mixture of isomers),> 100,46,75,,
CC12CC3CC(C(=O)N[C@@H]4CCNC[C@H]4F)(C1)CC(c1ccccc1)(C3)C2 (mixture of isomers),> 100,33,60,,
CCC12CC3CC(C(=O)N[C@H]4CC[C@H](N)CC4)(C1)CC(c1ccccc1)(C3)C2 (mixture of isomers),> 100,,71,10,
CC12CC3CC(C(=O)N4CCNCC4)(C1)CC(c1ccccc1)(C3)C2 (racemic),> 100,130,100,,
CC12CC3CC(C(=O)NC4CCNCC4)(C1)CC(c1ccccc1)(C3)C2 (racemic),> 100,,75,43,
CC12CC3CC(C(=O)N4CCC(N)CC4)(C1)CC(c1ccccc1)(C3)C2 (racemic),> 100,51,81,,
CCC12CC3CC(C(=O)NC4CCNCC4)(C1)CC(c1ccccc1)(C3)C2 (racemic),> 100,20,69,,
CC12CC3CC(C(=O)NCC4CCNCC4)(C1)CC(c1ccccc1)(C3)C2 (racemic),> 100,420,,,
CC12CC3CC(C(=O)NC4CC5(CC(N)C5)C4)(C1)CC(c1ccccc1)(C3)C2 (racemic),> 100,40,79,,
CC12CC3CC(C(=O)N[C@H]4CC[C@@H](N)CC4)(C1)CC(c1ccccc1)(C3)C2 (mixture of isomers),> 100,110,87,,
CC12CC3CC(C(=O)N[C@H]4CC[C@H](N)CC4)(C1)CC(c1ccccc1)(C3)C2 (mixture of isomers),> 100,,92,31,
CC12CC3CC(C(=O)N[C@H]4CC[C@H](CN)CC4)(C1)CC(c1ccccc1)(C3)C2 (mixture of isomers),> 100,,75,30,
CC12CC3CC(C(=O)NC4CNC4)(C1)CC(c1ccccc1)(C3)C2 (racemic),> 100,280,,,
CC12CC3CC(C(=O)N[C@H]4[C@@H]5CNC[C@@H]54)(C1)CC(c1ccccc1)(C3)C2 (mixture of isomers),61,120,,,
CC12CC3CC(C(=O)NCCN)(C1)CC(c1ccccc1)(C3)C2 (racemic),> 100,250,,,
CC12CC3CC(C(=O)N[C@H]4CC[C@H](N)CC4)(C1)CC(c1ccccc1)(C3)C2 (stereo in doubt; 38),,,,14,"remaining at 1 h, 1 µM [4]: 96%; Stability [3]: 100%; remaining at 1 h, 1 µM [5]: 63%; CC50 at 240 h [6]: 58 µM; remaining at 1 h, 1 µM [7]: 100%; selectivity ratio at 240 h [8]: 77; remaining at 1 h, 1 µM [9]: 89%; remaining at 1 h, 1 µM [10]: 74%; solubility at 2 h [11]: > 20 mg/mL; EC90 [12]: 750 nM; EC50 [13]: 240 nM"
CC12CC3CC(C(=O)N[C@H]4CC[C@H](N)CC4)(C1)CC(c1ccccc1)(C3)C2 (stereo in doubt; 39),,,,140,
CC12CC3CC(C(=O)N[C@H]4CC[C@H](CN)CC4)(C1)CC(c1ccccc1)(C3)C2 (stereo in doubt; 40),,,,10,"remaining at 1 h, 1 µM [4]: 85%; Stability [3]: 82%; remaining at 1 h, 1 µM [5]: 27%; CC50 at 240 h [6]: 22 µM; remaining at 1 h, 1 µM [7]: 99%; selectivity ratio at 240 h [8]: 40; remaining at 1 h, 1 µM [9]: 61%; remaining at 1 h, 1 µM [10]: 27%; solubility at 2 h [11]: > 20 mg/mL; EC90 [12]: 550 nM; EC50 [13]: 430 nM"
CC12CC3CC(C(=O)N[C@H]4CC[C@H](CN)CC4)(C1)CC(c1ccccc1)(C3)C2 (stereo in doubt; 41),,,,74,
CCC12CC3CC(C(=O)N[C@H]4CC[C@H](N)CC4)(C1)CC(c1ccccc1)(C3)C2 (stereo in doubt; 42),,,,12,"remaining at 1 h, 1 µM [4]: 77%; Stability [3]: 65%; remaining at 1 h, 1 µM [5]: 46%; CC50 at 240 h [6]: 31 µM; remaining at 1 h, 1 µM [7]: 36%; selectivity ratio at 240 h [14]: 221; remaining at 1 h, 1 µM [9]: 60%; remaining at 1 h, 1 µM [10]: 60%; solubility at 2 h [11]: > 20 mg/mL; EC50 [13]: 140 nM"
CCC12CC3CC(C(=O)N[C@H]4CC[C@H](N)CC4)(C1)CC(c1ccccc1)(C3)C2 (stereo in doubt; 43),,,,350,
